The text below walks through data of patent US20090252673A1, “Methods of Making and Using Rubidium-81-Containing Compositions” (priority 2006, published 2009).

Structures are written as SMILES.

In the series the test system is occlusion/reperfusion rat heart model. As to the kind of experiment: Ex vivo dual tracer autoradiography, Tl-201 and Rb-81 redistribution kinetics. The format is in vivo, rats. Particulars: 20 μm heart slices, phosphor-imager ROIs. Here is the method:
Three additional rats were simultaneously injected with 20 MBq Rb-81 and 2.7 MBq Tl-201. After the occlusion/injection/reperfusion procedure was completed (see FIG. 8), the animals were sacrificed at 0, 15 and 45 min after initiating the reperfusion.
After the hearts of the animals were removed and freshly frozen in liquid nitrogen, they were sliced into short axis 20 μm slices. Radioactivity in the tissues sections was determined by using a phosphor-imager. Rb-81 was measured over a period of 3 h directly after preparation of the slices, whereas the Tl-201 activity was determined after the Rb-81 activity was almost completed (Rb-81: t1/2=4.58 h versus a 4 day decay period).
Quantitative evaluations were carried out by comparison of the detected counts within regions-of-interest in both, normal tissue areas and occluded tissues areas. Comparisons are given in percent of normal heart tissue.

For the molecule `[201Tl]` [Tl-201, reference compound], the “activity in occluded areas, percent of the uptake in normal tissues” value (“activity in occluded areas, percent” below) (0 min p.i.) is 5%; the “activity in occluded areas, percent” value (15 min p.i.) was found to be 28%; the “activity in occluded areas, percent” value (45 min p.i.) is recorded as 58%.
